Measurements reported in patent US5783247A, “Flavoring composition containing oxidized triglyceride fats, fatty acids, of fatty acid derivatives” (Van Den Berg Foods Co., Division of Conopco, Inc., priority 1993, dated 1998).

Assay: Induction period of fat with anti-oxidant
Format: physicochemical
Details: calculated on the fat; induction period established at 100° C.
Description: Preferably the anti-oxidant is selected from the group consisting of natural and nature-identical anti-oxidants, citric acid, tartaric acid and precursors thereof. The most preferred anti-oxidant is α-tocopherol and mixtures of tocopherols, which are commercially available. Alpha-tocopherol is commonly present as a native anti-oxidant in vegetable fat. About 0.1 wt. % (calculated on the fat) of alpha-tocopherol is sufficient for increasing the induction period of the fat by a factor of 1.5 (effective concentration). The induction period is established at 100° C., using the method described in J. Am. Oil. Chem. Soc. Vol. 63, 6 (1986), 192-195.

Cc1c(C)c2c(c(C)c1O)CCC(C)(CCCC(C)CCCC(C)CCCC(C)C)O2 (stereo not drawn) [alpha-tocopherol]
effective concentration (increasing the induction period of the fat by a factor of 1.5): About 0.1 wt. %
